Source: paper PMC1660542, “Structure-based discovery of inhibitors of the YycG histidine kinase: New chemical leads to combat Staphylococcus epidermidis infections” (BMC Microbiology, 2006)
≈ marks a conversion by molar mass, not a printed value. Like-named read-outs stand apart in the source and are kept apart here.

Assays:
[1] = biological target: T1, YycG' protein (Staphylococcus epidermidis, UniProt Q8CU87); assay: Inhibition of YycG' ATPase activity / autophosphorylation (Kinase-Glo Luminescent Kinase Assay); assay type: biochemical; conditions: for inhibition at 50 µM: read-out: Inhibition of YycG' phosphorylation (decrease of ATPase activity)
T1 construct: of YycG (370aa to 610aa) was amplified by PCR; His-tag (pET28a) (N); made in house; host or cells: E. coli BL21 (pET28a, pETYycG')
T1 sequence (Q8CU87 370-610): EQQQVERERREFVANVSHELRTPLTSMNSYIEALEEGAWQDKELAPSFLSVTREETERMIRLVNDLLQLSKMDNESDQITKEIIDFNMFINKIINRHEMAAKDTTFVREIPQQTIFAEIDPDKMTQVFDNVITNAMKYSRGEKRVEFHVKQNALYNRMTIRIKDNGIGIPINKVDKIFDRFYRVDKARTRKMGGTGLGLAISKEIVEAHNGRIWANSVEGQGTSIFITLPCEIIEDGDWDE
Protocol: The inhibitory activities of the compounds for the ATPase activity of the YycG' protein was measured using the Kinase-Glo™ Luminescent Kinase Assay (Promega, Madison, USA). Briefly, 4 μg YycG' protein was pre-incubated with a series of dilution of compounds in the reaction buffer (40 mM Tris [pH 7.5], 20 mM MgCl2, and 0.1 mg/ml BSA), at 25°C for 30 min. Then 3 μM ATP was added for another incubation of 30 min at 25°C, and Kinase-Glo™ Reagent was added to detect the rest amount of ATP, as recorded from luminescence measurements (RLU). In parallel, theYycG' protein with no addition of compounds was used as the control. The rate of inhibiting protein phosphorylation (Rp) by the compounds was calculated from equation 1:
Rp=RLU(YycG^′+compound+ATP+Reagent)−RLU(YycG^′+ATP+Reagent)/RLU(ATP+Reagent)−RLU(YycG^′+ATP+Reagent)×100% (1) MathType@MTEF@5@5@+=feaafiart1ev1aaatCvAUfKttLearuWrP9MDH5MBPbIqV92AaeXatLxBI9gBaebbnrfifHhDYfgasaacH8akY=wiFfYdH8Gipec8Eeeu0xXdbba9frFj0=OqFfea0dXdd9vqai=hGuQ8kuc9pgc9s8qqaq=dirpe0xb9q8qiLsFr0=vr0=vr0dc8meaabaqaciaacaGaaeqabaqabeGadaaakeaacqqGsbGudaWgaaWcbaGaeeiCaahabeaakiabg2da9maalaaabaGaeeOuaiLaeeitaWKaeeyvauLaeiikaGIaeeywaKLaeeyEaKNaee4yamMafe4raCKbauaacqGHRaWkcqqGJbWycqqGVbWBcqqGTbqBcqqGWbaCcqqGVbWBcqqG1bqDcqqGUbGBcqqGKbazcqGHRaWkcqqGbbqqcqqGubavcqqGqbaucqGHRaWkcqqGsbGucqqGLbqzcqqGHbqycqqGNbWzcqqGLbqzcqqGUbGBcqqG0baDcqGGPaqkcqGHsislcqqGsbGucqqGmbatcqqGvbqvcqGGOaakcqqGzbqwcqqG5bqEcqqGJbWycuqGhbWrgaqbaiabgUcaRiabbgeabjabbsfaujabbcfaqjabgUcaRiabbkfasjabbwgaLjabbggaHjabbEgaNjabbwgaLjabb6gaUjabbsha0jabcMcaPaqaaiabbkfasjabbYeamjabbwfavjabcIcaOiabbgeabjabbsfaujabbcfaqjabgUcaRiabbkfasjabbwgaLjabbggaHjabbEgaNjabbwgaLjabb6gaUjabbsha0jabcMcaPiabgkHiTiabbkfasjabbYeamjabbwfavjabcIcaOiabbMfazjabbMha5jabbogaJjqbbEeahzaafaGaey4kaSIaeeyqaeKaeeivaqLaeeiuaaLaey4kaSIaeeOuaiLaeeyzauMaeeyyaeMaee4zaCMaeeyzauMaeeOBa4MaeeiDaqNaeiykaKcaaiabgEna0kabigdaXiabicdaWiabicdaWiabcwcaLiaaxMaacaWLjaWaaeWaaeaacqaIXaqmaiaawIcacaGLPaaaaaa@A46C@
IC50 (the concentration of inhibition of 50% YycG' protein autophosphorylation) was obtained by using the Origin v7.0 software (OriginLab, Northampton, USA).

[2] = test system: healthy human erythrocytes; assay: Erythrocyte hemolysis assay; assay type: cell-based;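 as to hemolysis: compounds tested at their MIC and at 4× MIC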
Protocol: (§1) Cytotoxicity of the antibacterial compounds on cultured Vero cell was measured by using the Cell Proliferation Kit I (MTT) (Roche, Indianapolis, USA) according to the manufacturer's protocol. Addition of DMSO (1%) in the medium produced a slight cytotoxicity on Vero cell, which could easily be corrected for. Each assay was performed in quadruplicate and repeated three times. The results were converted to percentage of the control (cells only treated with 1% DMSO) and CC50 (concentrations that produce a 50% cytotoxicity effect on Vero cell) was calculated by the Origin v7.0 software (OriginLab, Northampton, USA). Hemolytic activities of the compounds were determined by using healthy human erythrocytes. The erythrocytes were washed three times in sterile saline and resuspended to 5% prior to the assay. […] Cells without compound treatment and cells with 1% Triton-100 treatment were used as 0% and 100% hemolysis controls, respectively. The cell suspensions were incubated for 1 hour at 37°C and centrifuged at 1000×g for 10 min. Volumes of 100 μl supernatants were transferred to another sterile plate and hemoglobin release from the cells was determined at 570 nm. […] The hemolysis assays were repeated twice.

[3] = Erythrocyte hemolysis assay; assay type: cell-based, human; conditions: human, 1 hour, 37°C;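 as to hemolysis: compounds tested at their MIC and at 4× MIC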
Protocol: as §1

[4] = test system: S. pyogenes 144; assay: MIC assay (broth dilution in tubes, CLSI); assay type: cell-based, Streptococcus pyogenes; conditions: for MIC: Streptococcus pyogenes, S. pyogenes 144, read-out: Minimal inhibitory concentration (MIC)
Text: (§2) Staphylococcus epidermidis ATCC12228 and RP62A strains were purchased from the American Type Culture Collection (ATCC, Manassas, USA). Staphylococcus aureus ATCC29213, Escherichia coli ATCC25922 and Pseudomonas aeruginosa ATCC27853 were kindly provided by Dr. Bijie Hu at Zhongshan Hospital (Shanghai, China). S. epidermidis strains se527, se886, se847, seG203, Streptococcus pyogenes strain 144, and Streptococcus mutans strain 128 were all clinical isolates from Zhongshan Hospital and Huashan Hospital (Shanghai, China). If not stated otherwise, S. epidermidis and S. aureus strains were grown at 37°C in tryptic soy broth (TSB, Oxoid) containing 0.25% glucose, E. coli and P. aeruginosa strains were grown at 37°C in Luria-Bertani (LB, Oxoid).
(§3) MIC assays for the antibacterial activities of the compounds were performed according to the broth micro-dilution (in tubes) method of the Clinical and Laboratory Standards Institute (CLSI) of America. The Minimal Bactericidal Concentration (MBC) was obtained by subculturing 100 μl from each negative (no visible bacterial growth) tube from the MIC assay, onto substance-free Mueller-Hinton agar plates. The plates were incubated at 37°C for 24 hours, and the MBC was defined as the lowest concentration of substance which produced subcultures growing no more than five colonies on each plate.

[5] = test system: SrrB'; assay: Inhibition of SrrB' autophosphorylation (Kinase-Glo); assay type: biochemical, S. epidermidis; conditions: compound 50 μM, 4 μg protein, 3 μM ATP
[6] = test system: S. epidermidis ATCC12228; assay: MIC assay (broth dilution in tubes, CLSI); assay type: cell-based, Staphylococcus epidermidis; conditions: Staphylococcus epidermidis
Text: as §2, §3

[7] = test system: S. epidermidis RP62A; assay: MIC assay (broth dilution in tubes, CLSI); assay type: cell-based; conditions: Staphylococcus epidermidis, read-out: Minimal inhibitory concentration (MIC)
Text: as §2, §3

[8] = test system: S. aureus ATCC29213; assay: MIC assay (broth dilution in tubes, CLSI); assay type: cell-based, Staphylococcus aureus; conditions: for MIC: Staphylococcus aureus
Text: as §2, §3

[9] = test system: S. mutans 128; assay: MIC assay (broth dilution in tubes, CLSI); assay type: cell-based, Streptococcus mutans; conditions: for MIC: Streptococcus mutans, S. mutans 128, read-out: Minimal inhibitory concentration (MIC)
Text: as §2, §3

[10] = test system: S. epidermidis RP62A; assay: Minimal bactericidal concentration (MBC) assay; assay type: cell-based; conditions: Staphylococcus epidermidis; S. epidermidis RP62A; read-out: Minimal bactericidal concentration (MBC)
Protocol: as §3

[11] = test system: S. epidermidis ATCC12228; assay: Minimal bactericidal concentration (MBC) assay; assay type: cell-based; conditions: Staphylococcus epidermidis
Protocol: as §3

[12] = test system: Vero cell; assay: Cytotoxicity on Vero cell (MTT, Cell Proliferation Kit I); assay type: cell-based, African Green-monkey; conditions: highest concentration tested 200 μM
Protocol: as §1

[13] = as above; assay type: cell-based, African Green-monkey; conditions: African green monkey, highest concentration tested 200 μM
Protocol: as §1

[14] = biological target: T1, YycG' protein; assay: Compound-YycG' protein binding assay (SPR, Biacore 3000); conditions: SPR
Text: The YycG' fragment containing the cytoplasmic signal domains (the HATPase_c and HisKA domain, see Figure 1A) of YycG (370aa to 610aa) was amplified by PCR (with the chromosomal DNA of S. epidermidis ATCC12228 as the template, and (5' […] 3') and (5' […] 3') as the primers. Subsequently, the fragment was digested with BamHI and XholI (TAKARA, Japan) and ligated into the corresponding sites of pET28a (Promega, Madison, USA) to obtain pETYycG'. The expressed YycG' protein was purified with the ProBond™ Purification System (Invitrogen, California, USA), according to the manufacturer's protocol.
The in vitro binding affinities of the inhibitor compounds to the YycG' protein was determined using surface plasmon resonance (SPR) biosensor technology on the dual flow cell Biacore 3000 instrument (Biacore AB, Uppsala, Sweden) with a similar method as described in our previous study. Immobilization of the YycG' protein to the hydrophilic carboxymethylated dextran matrix of the sensor chip CM5 (Biacore) was carried out by the standard primary amine coupling reaction. […] The equilibrium constants (KD) evaluating the protein-ligand binding affinity were determined by the steady state or the kinetic state affinity fitting model encoded in the Biacore analysis software.

[15] = 4 μg YycG' protein, 3 μM ATP, read-out: IC50 for YycG'
[16] = compound 50 μM, 4 μg protein, 3 μM ATP
[17] = erythrocytes (5% suspension), at 4 × MIC (number in parenthesis)
[18] = erythrocytes (5% suspension), at MIC for S. epidermidis ATCC12228
[19] = ATCC12228, Table 2, as tested on S. epidermidis ATCC 12228, read-out: MICs
[20] = S. epidermidis ATCC12228 (non-biofilm-forming strain), read-out: Minimal inhibitory concentration (MIC)
[21] = S. epidermidis RP62A (biofilm-forming strain)
[22] = S. aureus ATCC29213, read-out: Minimal inhibitory concentration (MIC)

**Q.** Which results are given for `CCc1ccccc1N=C1SC(=Cc2ccc(OCC(O)O)c(OC)c2)C(=O)N1c1ccccc1CC` [Compound 2]?
**A.** IC50 [1, 15]: 29 µM; inhibition at 50 µM [1, 16]: 61%; Hemolysis ([2]; at 4 × MIC (number in parenthesis), 1 hour, 37°C): 6.1%; Hemolytic activity ([2]; at the highest concentration (200 μM)): ~ 16 % of the zero control; hemolysis at 1 h [3, 17]: ~6%; hemolysis at 1 h [3, 18]: 2.3%; Inhibitory effect against Streptococcus pyogenes [4]: effective; MIC [4]: 100 µM (≈ 51.9 µg/mL); Inhibition of SrrB' phosphorylation [5]: 3%; MIC [6, 19]: 25 µM (≈ 13 µg/mL); MIC [6, 20]: 25 µM (≈ 13 µg/mL); MIC [7, 21]: 25 µM (≈ 13 µg/mL); Inhibitory effect against S. aureus [8]: effective; MIC [8, 22]: 25 µM (≈ 13 µg/mL); Inhibitory effect against Streptococcus mutans [9]: effective; MIC [9]: 100 µM (≈ 51.9 µg/mL); MBC [10]: 100 µM (≈ 51.9 µg/mL); MBC [11]: 100 µM (≈ 51.9 µg/mL)

**Q.** Which CC50 [12] does the source give for `CC(=O)Nc1ccccc1C(=O)Nc1ccc2cc3ccc(NC(=O)c4ccccc4NC(C)=O)cc3nc2c1` [Compound 3] here?
**A.** Its CC50 is 152 µM.

**Q.** And the CC50 ([13]; Vero cells)?
**A.** Its CC50 is under 200 µM.

**Q.** What about the IC50 [1, 15] of the same molecule?
**A.** Its IC50 is 15 µM.

**Q.** And the inhibition at 50 µM [1, 16]?
**A.** Its inhibition at 50 µM is 70%.

**Q.** What about the hemolysis at 1 h [3, 17] of the same molecule?
**A.** The hemolysis at 1 h was 0.5%.

**Q.** What about the hemolysis at 1 h [3, 18] of the same molecule?
**A.** The hemolysis at 1 h was under 0.1%.

**Q.** And the “Inhibitory effect against Streptococcus pyogenes” value [4]?
**A.** The value was “inhibited the growth”.

**Q.** And the MIC [4]?
**A.** The MIC was 25 µM (≈ 13.3 µg/mL).

**Q.** What about the “Inhibition of SrrB' phosphorylation” value [5] of the same molecule?
**A.** The value was 5%.

**Q.** What about the MIC [6, 19] of the same molecule?
**A.** Its MIC is 12.5 µM (≈ 6.64 µg/mL).

**Q.** What about the MIC [6, 20] of the same molecule?
**A.** Its MIC is 12.5 µM (≈ 6.64 µg/mL).

**Q.** And the MIC [7, 21]?
**A.** The MIC was 25 µM (≈ 13.3 µg/mL).

**Q.** What about the “Inhibitory effect against S. aureus” value [8] of the same molecule?
**A.** The value was “inhibited the growth”.

**Q.** What about the MIC [8, 22] of the same molecule?
**A.** The MIC was 100 µM (≈ 53.2 µg/mL).

**Q.** What about the MIC [9] of the same molecule?
**A.** Its MIC is over 200 µM.

**Q.** And the MBC [10]?
**A.** The MBC was 100 µM (≈ 53.2 µg/mL).

**Q.** What about the MBC [11] of the same molecule?
**A.** The MBC was 50 µM (≈ 26.6 µg/mL).

**Q.** Which results are given for `CCOc1cccc(N2C(=O)/C(=C\c3ccc(OCc4ccc(F)cc4)c(Br)c3)C(=O)NC2=S)c1` [Compound 6]?
**A.** CC50 [13]: > 200 µM; Binding to the YycG' protein [14]: only bound very poorly; IC50 [1]: > 200 µM; inhibition at 50 µM [1]: ~7%; hemolysis at 1 h ([3]; at 4 × MIC (number in parenthesis)): 2.3%; hemolysis at 1 h ([3]; at MIC for S. epidermidis ATCC12228): 1.1%; MIC ([6]; ATCC12228, read-out: MICs): 100 µM (≈ 55.5 µg/mL); MIC ([6]; ATCC12228, read-out: Minimal inhibitory concentration (MIC)): 100 µM (≈ 55.5 µg/mL); MIC ([7]; RP62A): 100 µM (≈ 55.5 µg/mL); MIC ([8]; ATCC29213, read-out: Minimal inhibitory concentration (MIC)): > 200 µM
